Measured values reported in patent publication EP3677663A1, “NON-ENZYMATIC REMOVAL OF PROTEINACEOUS SOILS” (Henkel AG & Co. KGaA, priority 2019, dated 2020).

Legend:
Whey protein = test: Hydrolysis of unaltered Whey protein by polyoxometalates, monitored by SDS-PAGE; assay type: biochemical; details: 60°C, 1.5 mg/ml Whey protein, polyoxometalate 14 mg/ml
Experimental: (§1) All gels were 100x100x1 mm and the stacking gel was approximately 1 cm long from the bottom of the comb to the top of the resolving gel resulting in a resolving gel of 8 cm. 2. Table 1: Composition of the solutions to prepare 18% resolving and 5% stacking gel.
(§2) After pouring the resolving gel, a thin layer of isopropanol was carefully added on top of the gel. The resolving gel was left 1 hour to harden, and isopropanol was removed before pouring the stacking gel. A 12 well comb was placed inside the stacking gel and left to harden for an additional hour. The finished gels were kept in the fridge.
(§3) Samples were prepared by mixing a 10 µl of sample with 5 µl of 3X sample buffer (225 µl TRIS/HCI buffer (1M, pH 6.8), 630 mg glycerol, 50 mg SDS, 0.5 mg bromophenol blue and 250 µl 1 M DTI), incubating at 95 °C for 5 minutes and centrifuging the samples after they are cooled to room temperature. The wells of the stacking gel were loaded with 10 µl of sample and 5 µl of protein ladder.
(§4) An OmniPAGE electrophoretic cell was combined with an EV243 power supply (both produced by Consort) in experiments at 30 mA/gel and 100 V/gel for the 18% resolving gel (approximately 2.5 hours) and 20 mA/gel and 100 V/gel for the 12% resolving gel (approximately 1.5 hours). As anode and cathode buffer a TRIS/Tricine running buffer (0.1 M TRIS, 0.1 M Tricine and 0.1 wt/vol% SDS) was used for 18% gels and a TRIS/Glycine running buffer (0.2 M Glycine, 0.025 M TRIS and 0.1 wt/vol% SDS) for 12% gels. Before staining the gels were fixed for 1 hour in a 12 wt/vol% TCA solution. The staining was done by leaving the gels in a colloidal coomassie blue solution (700 ml H2O, 100 ml H3PO4, […], 1.2 g coomassie blue and 200 ml methanol) over night and subsequently destained with a heavy destain solution {60 ml methanol, 20 ml acetic acid and 120 ml water) and water. Finally, the gels were analyzed with a Gel Doc EZ imager and Image LabTM Software (both supplied by Bio-Rad). The kinetics of the reactions were studied by plotting the relative intensity of the intact proteins band in function of time and fitted to the exponential expression of a pseudo first-order reaction: I = I0 e^-kobst
(§5) In this equation I represents the intensity in function of time t, I0 the intensity at time 0 and kobs is the observed hydrolysis rate. The half-life (t½) of the intact protein was calculated according to t½ = (ln(2))/(kobs) [formula]
(§6) To solutions of 1.0 mg/ml solution of unaltered Ovalbumin or the Lactose/Ovalbumin Maillard reaction samples of example 4 or of 1.5 mg/ml solution of unaltered Whey protein or the Lactose/Whey protein Maillard reaction samples of example 4 were added the polyoxometalates of examples 1 to 3 at a concentration of 14 mg/ml. The rate of hydrolysis for the proteins at 60°C at pH 4 (sodium citrate buffer, 10 mM) and 9 (glycine/NaOH buffer, 10 mM) was studied over time. Results for the hydrolysis rate and the half-life of the unaltered protein samples are given in tables 5 and 6 and results for the half-life of altered proteinaceous samples of example 4 (treated at pH 9) are given in table 7. Table 5: Hydrolysis of unaltered Whey protein

Ovalbumin = biological target: T1, Ovalbumin (Gallus gallus, UniProt P01012); test: Hydrolysis of unaltered Ovalbumin by polyoxometalates, monitored by SDS-PAGE; assay type: biochemical, chicken; details: 60°C, 1.0 mg/ml Ovalbumin, polyoxometalate 14 mg/ml
T1 construct: Ovalbumin from chicken egg was purchased from Acros (Mw 44.5 kDa); purchased Acros; host or cells: chicken egg
T1 sequence (P01012 1-386): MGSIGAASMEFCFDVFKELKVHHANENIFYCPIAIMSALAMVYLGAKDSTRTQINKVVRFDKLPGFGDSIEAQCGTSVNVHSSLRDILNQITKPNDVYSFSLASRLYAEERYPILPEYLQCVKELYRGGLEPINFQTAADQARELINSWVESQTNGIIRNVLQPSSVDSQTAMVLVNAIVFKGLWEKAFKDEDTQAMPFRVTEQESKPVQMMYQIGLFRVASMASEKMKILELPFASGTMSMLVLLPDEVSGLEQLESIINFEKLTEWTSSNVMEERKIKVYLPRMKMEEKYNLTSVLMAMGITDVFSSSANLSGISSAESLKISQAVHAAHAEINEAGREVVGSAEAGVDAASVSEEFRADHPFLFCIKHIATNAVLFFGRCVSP
Experimental: as §1, §2, §3, §4, §5, §6

[1] = pH 4 (sodium citrate buffer, 10 mM)
[2] = pH 9 (glycine/NaOH buffer, 10 mM)

Question: For K10[Ce(PW11O39)2] [CeKe2], which “Rate x 10^-3 [min^-1]” value (Whey protein; [1]) is on record?
Answer: 9±5 x 10^-3 min^-1

Question: And the “Rate x 10^-3 [min^-1]” value (Whey protein; [2])?
Answer: 5.30±0.04 x 10^-3 min^-1

Question: What about the “Rate x 10^-3 [min^-1]” value (Ovalbumin; [1]) of the same substance?
Answer: 6±2 x 10^-3 min^-1

Question: And the “Rate x 10^-3 [min^-1]” value (Ovalbumin; [2])?
Answer: 7±1 x 10^-3 min^-1

Question: What does the source list for ((C2H5)2NH2)10[Zr(PW11O39)2] [ZrKe2]?
Answer: Rate x 10^-3 [min^-1] (Whey protein; [1]): 1.8±0.7 x 10^-3 min^-1; Rate x 10^-3 [min^-1] (Whey protein; [2]): 6±1 x 10^-3 min^-1; Rate x 10^-3 [min^-1] (Ovalbumin; [1]): 4.3±0.4 x 10^-3 min^-1; Rate x 10^-3 [min^-1] (Ovalbumin; [2]): 5±2 x 10^-3 min^-1

Question: ((C2H5)2NH2)6[Zr2(PW11O39)2] [Zr2Ke2] was tested. Which “Rate x 10^-3 [min^-1]” value (Whey protein; [1]) did it give?
Answer: 3.8±0.8 x 10^-3 min^-1

Question: And the “Rate x 10^-3 [min^-1]” value (Whey protein; [2])?
Answer: 1±1 x 10^-3 min^-1

Question: And the “Rate x 10^-3 [min^-1]” value (Ovalbumin; [1])?
Answer: 6±3 x 10^-3 min^-1

Question: And the “Rate x 10^-3 [min^-1]” value (Ovalbumin; [2])?
Answer: 7±3 x 10^-3 min^-1
